Laboratory results as given in patent US7141592B2, “Substituted oxadiazolidinediones” (Wyeth, priority 2003, dated 2006).

The compounds below were run against T1, recombinant human plasminogen activator inhibitor-1 (PAI-1) (Homo sapiens, UniProt P05121) (assay: Primary screen for the PAI-1 inhibition (chromogenic tPA activity, Spectrozyme-tPA)). Conditions: compound at 100 μM.
T1 construct: purchased Molecular Innovations, Royal Oak, Mich
Assay type: biochemical
Description: Test compounds are dissolved in DMSO at a final concentration of 10 mM, then diluted 100× in physiologic buffer. The inhibitory assay is initiated by the addition of the substituted oxadiazolidinedione (1–100 μM final concentration, maximun DMSO concentration of 0.2%) in a pH 6.6 buffer containing 140 nM recombinant human plasminogen activator inhibitor-1 (PAI-1; Molecular Innovations, Royal Oak, Mich.). Following a 1 hour incubation at room temperature, 70 nM of recombinant human tissue plasminogen activator (tPA) is added, and the combination of the substituted oxadiazolidinedione, PAI-1 and tPA is incubated for an additional 30 minutes. Following the second incubation, Spectrozyme-tPA (American Diagnostica, Greenwich, Conn.), a chromogenic substrate for tPA, is added and absorbance read at 405 nm at 0 and 60 minutes. Relative PAI-1 inhibition is equal to the residual tPA activity in the presence of the test compound and PAI-1. Control treatments include the complete inhibition of tPA by PAI-1 at the molar ratio employed (2:1), and the absence of any effect of the substituted oxadiazolidinedione on tPA alone.

T1 sequence (P05121 24-402): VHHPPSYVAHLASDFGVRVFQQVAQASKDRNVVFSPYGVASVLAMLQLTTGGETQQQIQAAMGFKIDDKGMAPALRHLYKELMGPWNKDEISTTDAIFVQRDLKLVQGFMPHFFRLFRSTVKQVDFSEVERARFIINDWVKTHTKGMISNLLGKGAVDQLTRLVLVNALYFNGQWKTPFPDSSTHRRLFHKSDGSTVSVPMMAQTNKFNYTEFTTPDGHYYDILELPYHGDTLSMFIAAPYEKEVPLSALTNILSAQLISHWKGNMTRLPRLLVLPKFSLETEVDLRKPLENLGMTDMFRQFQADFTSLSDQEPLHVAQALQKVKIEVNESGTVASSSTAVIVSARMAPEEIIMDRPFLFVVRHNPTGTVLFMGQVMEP

Compound	inhibition at 100 µM	% Inhibition @ 100 μM
O=c1[nH]c(=O)n(Cc2cccc(-c3cccc(OCc4ccc(Cl)cc4)c3)c2)o1 [Compound 42, 2-({3′-[(4-chlorobenzyl)oxy]-1,1′-biphenyl-3-yl}methyl)-1,2,4-oxadiazolidine-3,5-dione]	100%	–
O=c1[nH]c(=O)n(Cc2cccc(-c3cccc(OCc4cccc(Cl)c4)c3)c2)o1 [Compound 39, 2-({3′-[(3-chlorobenzyl)oxy]-1,1′-biphenyl-3-yl}methyl)-1,2,4-oxadiazolidine-3,5-dione]	99%	–
O=c1[nH]c(=O)n(Cc2ccc(OCc3ccccc3Br)c(OCc3ccccc3Br)c2)o1 [Compound 90, 2-{3,4-bis[(2-bromobenzyl)oxy]benzyl}-1,2,4-oxadiazolidine-3,5-dione]	94%	–
2-({4′-[(3-bromobenzyl)oxy]-1,1′-biphenyl-3-yl}methyl)-1,2,4-oxadiazolidine-3,5-dione [Compound 52]	–	80%
C#CCn1cc(Cn2oc(=O)[nH]c2=O)c2cc(OCc3ccc(Br)cc3)ccc21 [Compound 24, 2-{[5-[(4-bromobenzyl)oxy]-1-(2-propynyl)-1H-indol-3-yl]methyl}-1,2,4-oxadiazolidine-3,5-dione]	68%	–
O=c1[nH]c(=O)n(Cc2ccc(C#CCOc3cc(C(F)(F)F)cc(C(F)(F)F)c3)cc2)o1 [Compound 61, 2-(4-{3-[3,5-bis(trifluoromethyl)phenoxy]prop-1-ynyl}benzyl)-1,2,4-oxadiazolidine-3,5-dione]	87%	–
2-[(4′-{[4-(trifluoromethyl)benzyl]oxy}-1,1′-biphenyl-3-yl)methyl]-1,2,4-oxadiazolidine-3,5-dione [Compound 49]	–	28%
C=CCn1cc(Cn2oc(=O)[nH]c2=O)c2cc(OCc3ccc(C(F)(F)F)cc3)ccc21 [Compound 4, 2-[(1-allyl-5-{[4-(trifluoromethyl)benzyl]oxy}-1H-indol-3-yl)methyl]-1,2,4-oxadiazolidine-3,5-dione]	96%	–
CCn1cc(Cn2oc(=O)[nH]c2=O)c2cc(OCc3cc(C(F)(F)F)cc(C(F)(F)F)c3)ccc21 [Compound 6, 2-[(5-{[3,5-bis(trifluoromethyl)benzyl]oxy}-1-ethyl-1H-indol-3-yl)methyl]-1,2,4-oxadiazolidine-3,5-dione]	28%	–
O=c1[nH]c(=O)n(Cc2ccc(C#CCOc3cccc(Cl)c3)cc2)o1 [Compound 63, 2-{4-[3-(3-chlorophenoxy)prop-1-ynyl]benzyl}-1,2,4-oxadiazolidine-3,5-dione]	85%	–
C#CCn1cc(Cn2oc(=O)[nH]c2=O)c2cc(OCc3ccc(C(F)(F)F)cc3)ccc21 [Compound 12, 2-[(1-(2-propynyl)-5-{[4-(trifluoromethyl)benzyl]oxy}-1H-indol-3-yl)methyl]-1,2,4-oxadiazolidine-3,5-dione]	100%	–
C#CCn1cc(Cn2oc(=O)[nH]c2=O)c2cc(OCc3cccc(Cl)c3)ccc21 [Compound 28, 2-{[5-[(3-chlorobenzyl)oxy]-1-(2-propynyl)-1H-indol-3-yl]methyl}-1,2,4-oxadiazolidine-3,5-dione]	48%	–
C#CCn1cc(Cn2oc(=O)[nH]c2=O)c2cc(OCc3ccc(Cl)c(Cl)c3)ccc21 [Compound 18, 2-{[5-[(3,4-dichlorobenzyl)oxy]-1-(2-propynyl)-1H-indol-3-yl]methyl}-1,2,4-oxadiazolidine-3,5-dione]	100%	–
O=c1[nH]c(=O)n(Cc2cccc(-c3cccc(OCc4c(Cl)cccc4Cl)c3)c2)o1 [Compound 47, 2-({3′-[(2,6-dichlorobenzyl)oxy]-1,1′-biphenyl-3-yl}methyl)-1,2,4-oxadiazolidine-3,5-dione]	88%	–
COc1cc(Cn2oc(=O)[nH]c2=O)cc(OCc2ccccc2Br)c1OCc1ccccc1Br [Compound 80, 2-{3,4-bis[(2-bromobenzyl)oxy]-5-methoxybenzyl}-1,2,4-oxadiazolidine-3,5-dione]	89%	–
